Data from US12486227B2, “Small molecules for cancer therapy that reduce the expression of transcription factors KLF5 and EGR-1” (University of Florida Research Foundation, Incorporated, priority 2019, dated 2025).
Like-named read-outs stand apart in the source and are kept apart here.

Assays:
[1] = tested on: DLD-1, HCT116, HT29, and SW620 cells; test: Cell viability (Cell Titer-Glo) of four CRC cell lines; format: cell-based, human; settings: 24 h, FIGS. 2A-C
Procedure: SR18662 is potent inhibitor of CRC cell growth in vitro. […]. To examine the impact of these compounds on viability of CRC cell lines, we performed cell proliferation and cell growth assays using DLD-1 and HCT116 CRC cells. […] […]. Cell viability. DLD-1, HCT116, HT29, and SW620 cells were seeded in 96 well plate format and treated with DMSO or with compounds dissolved in DMSO in the range of 0.001 to 20 μM final concertation for 24 h and analyzed with the Cell Titer-Glo luciferase assay system (Promega) using a SpectraMax M3 (Molecular Devices) plate reader. The IC50 values were calculated using GraphPad Prism version 5.00 for Windows (GraphPad Software).

Cyclin D1, E, A2, and B1 = test: Western blot of cyclin levels; format: cell-based, human; settings: DLD-1 and HCT116, 1 μM or 10 μM, 72 h
Source text: Cyclins and their appropriate cyclin-dependent kinases form a regulatory network that allow cells to progress through the cell cycle (39, 40). […] SR15006, or SR18662, as compared to vehicle-treated cells. Thus, we investigated if these changes are accompanied by differences in the expression levels of cyclins. We focused our attention on Cyclin D1, E, A2, and B1, as we have previously shown that ML264 has inhibitory effect on their levels (24). […] Additionally, in contrast to ML264 or SR15006, SR18862 induced apoptosis and cell death.
(§1) Western blot analysis. Total protein was extracted from cells with Laemmli buffer and the analysis was performed as described previously (24).

EGR-1 = test: Western blot of EGR-1 protein levels in DLD-1 cells; format: cell-based, human; settings: 1 μM and 10 μM, 24 h
Procedure: We have studied the effects of SR18662 upon lowering KLF5 levels in colon cancer cell lines. […] The levels of the protein EGR-1 are lowered as well. In this experiment the test compounds were at 1 μM and 10 μM, and protein levels were measured after 24 h. […] The study was also repeated using HCT-116 cells rather than DLD-1 cells, with similar results. These compounds appear to dose-dependently reduce levels of KLF5 and EGR-1 proteins.
as §1

[2] = Oral bioavailability in mice; format: in vivo
[3] = tested on: SW-620 colorectal cancer cell line; test: MTT growth assay, SW-620; format: cell-based; settings: Homo sapiens, Table 1
Source text: (§2) The observed activity is greater than that previously seen for ML264.

[4] = tested on: HCT-116 colorectal cancer cell line; test: MTT growth assay, HCT-116; format: cell-based; settings: Homo sapiens, Table 1
Source text: as §2

human KLF5 promoter = test: KLF5 promoter activity luciferase assay in DLD-1/pGL4.18hKLF5p cells; format: cell-based; settings: Homo sapiens, DLD-1
Procedure: To examine the impact of these compounds on viability of CRC cell lines, we performed cell proliferation and cell growth assays using DLD-1 and HCT116 CRC cells. […] KLF5 promoter activity assay. DLD-1/pGL4.18hKLF5p cells were seeded in 96 well plate format and treated with DMSO or with test compounds dissolved in DMSO in the range of 0.001 to 20 μM final concentration for 24 h and the human KLF5 promoter activity was determined with the ONE-Glo luciferase assay system (Promega) using a SpectramMax M3 (Molecular Devices) plate reader. The IC50 values were calculated using GraphPad Prism version 5.00 for Windows (GraphPad Software) (22).

[5] = tested on: DLD-1-derived tumor xenografts; test: DLD-1 xenograft tumor growth in nude mice; format: in vivo, mouse
Procedure: SR18862 inhibits the growth of CRC xenografts in vivo. To evaluate SRI8662 in an in vivo model we used CRC cells for a mouse xenograft study. As described in more detail in the Examples section, nude mice were injected with DLD-1 CRC cells. Tumors were allowed to grow to an approximate size of 100 mm^3, and then mice were injected with vehicle or with varied concentrations of SR18662, given once a day or twice a day for five days, followed by two days without injection, and then followed by five days with injections. The experiment was completed the day after the last injection. […] Significant differences in tumor size are apparent at the end of the treatment schedule (FIG. 6B). To further characterize the impact of SR18662 on the features of isolated tumors, we compared vehicle-treated mice with mice that had been treated with SR18662 twice a day. […] Because SR18662 had induced cell apoptosis and death in the in vitro setting, we stained the xenografts with PanCK and TUNEL to estimate the levels of apoptosis in the in vivo context.
Xenografts. All mice studies were approved by the Stony Brook University Institutional Animal Care and Use Committee (IACUC) and performed in accordance with institutional policies and NIH guidelines. […] Tumor volume was determined by caliper measurement and calculated by the established method (25). […] Mice were monitored and weighed every two days. […]

SMILES: CS(=O)(=O)N1CCN(C(=O)CNC(=O)/C=C/c2ccc(Cl)c(Cl)c2)CC1 [Example 9, (E)-3-(3,4-dichlorophenyl)-N-(2-(4-(methylsulfonyl)piperazin-1-yl)-2-oxoethyl)acrylamide]
- cell viability IC50 relative to ML264 and SR15006 [1]: about one log unit lower than those for ML264 and SR15006
- levels of cyclins (Cyclin D1, E, A2, and B1): significant reduction in the levels of tested cyclins
- EGR-1 protein levels by Western blot (EGR-1): lowered
- oral bioavailability [2]: orally bioavailable
- EC50 [3]: 22 nM
- EC50 [4]: 22 nM
- IC50 (human KLF5 promoter; 24 h treatment, FIG. 1B, read-out: IC50, human KLF5 promoter activity): 4.4 nM
- IC50 (human KLF5 promoter; Table 1, comparison of ML264 and SR18662, read-out: luciferase IC50): 4.4 nM
- EC50 (human KLF5 promoter; Table 2, read-out: Approximate potency (EC50 · mol/L) (luciferase)): 4.4 nM
- tumor growth vs vehicle-treated mice ([5]; i.p., 5-25 mg/kg once or twice a day): dose-dependent reduction in tumor growth
- growth of CRC xenografts ([5]; once a day 10 mg/kg): strong inhibitory effects
